The nature of data set [1]: Caco-2 permeability assay (CacoReady kit). It is filed as in vitro ADME. To be noted: human, Caco-2, Caco-2 barrier, CacoReady kit; above 1×10^−6 cm/s classified as permeable. A digest of the protocol:
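Papp values come from Caco-2 barrier studies intended to predict oral bioavailability; the manufacturer's procedure for the ready-made kit was followed.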

In data set [2] the target is T1, recombinant human transglutaminase 2 (Homo sapiens, UniProt P21980).
T1 construct: purchased Zedira T022
T1 sequence (P21980 1-687): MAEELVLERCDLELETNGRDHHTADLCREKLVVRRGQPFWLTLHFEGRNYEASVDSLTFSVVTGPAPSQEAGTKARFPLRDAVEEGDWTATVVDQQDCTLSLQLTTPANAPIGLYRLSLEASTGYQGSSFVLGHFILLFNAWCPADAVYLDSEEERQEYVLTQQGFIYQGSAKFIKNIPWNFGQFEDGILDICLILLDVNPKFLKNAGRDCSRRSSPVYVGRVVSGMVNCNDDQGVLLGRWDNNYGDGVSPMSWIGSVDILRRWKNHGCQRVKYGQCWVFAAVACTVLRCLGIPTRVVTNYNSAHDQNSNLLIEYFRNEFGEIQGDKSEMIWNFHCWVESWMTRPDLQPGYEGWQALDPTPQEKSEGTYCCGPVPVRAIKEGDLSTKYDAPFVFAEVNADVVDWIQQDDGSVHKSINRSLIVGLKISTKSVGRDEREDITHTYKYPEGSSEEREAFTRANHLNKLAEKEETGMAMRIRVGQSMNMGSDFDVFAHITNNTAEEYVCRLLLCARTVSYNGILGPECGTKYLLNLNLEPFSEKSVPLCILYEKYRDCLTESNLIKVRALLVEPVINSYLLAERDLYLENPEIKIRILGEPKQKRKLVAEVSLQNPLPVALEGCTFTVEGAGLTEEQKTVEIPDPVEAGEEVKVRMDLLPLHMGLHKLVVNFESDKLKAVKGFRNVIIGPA
The experiment in a line: Transglutaminase assay (DCC-assay): incorporation of dansylcadaverine into dimethylcasein. It is filed as biochemical. To be noted: recombinant human TG2 10 nM; dansylcadaverine incorporation into dimethylcasein; read-out: IC50 TG2. A digest of the protocol: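 Recombinant human TG2 (10 nM final) incorporates dansylcadaverine into N,N-dimethylcasein. Reaction mix: 50 mM Tris-HCl, 10 mM CaCl2, 10 mM glutathione, 2.5% glycerol, 16.7 µM dansylcadaverine, 4 µM dimethylcasein, 200 mM NaCl, pH 8.0. Fluorescence (ex 330/em 500 nm) was followed 30 min at 37 °C; the 20–30 min slope, expressed as % of 2% DMSO control, gave IC50.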

Data set [3] in a line: logD by shake flask method (octanol / PBS pH 7.4, HPLC). In kind it is physicochemical. The settings on record: octanol / PBS pH 7.4, shake flask. In a few lines:
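Shake-flask partition of compound between octanol and phosphate-buffered saline at pH 7.4, with each phase quantified by HPLC to give LogD.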

In data set [1], `Cc1c(C(=O)N[C@@H](CCC(=O)C(N)=O)C(=O)Nc2cccn(CC(=O)NC3C4CC5CC(C4)CC3C5)c2=O)oc2ccccc12` (stereo partly drawn) [II-118, (S)-N1-(1-(2-(2-adamantylamino)-2-oxoethyl)-2-oxo-1,2-dihydropyridin-3-yl)-2-(3-methylbenzofuran-2-carboxamido)-5-oxohexanediamide] came in with a Papp of 1 to 10 ×10⁻⁶ cm/s. Moreover, in data set [2], the IC50 is below 40 nM. The same compound showed a logD in data set [3] of 1 to 3.

The compound `CNC(=O)C(=O)CC[C@H](NC(=O)c1nc(Br)sc1C)C(=O)Nc1cccn(CC(=O)NC2C3CC4CC(C3)CC2C4)c1=O` (stereo partly drawn) [II-34, (S)-2-(2-bromo-5-methylthiazole-4-carboxamido)-N1-(1-(2-(2-adamantylamino)-2-oxoethyl)-2-oxo-1,2-dihydropyridin-3-yl)-N6-methyl-5-oxohexanediamide] displayed a Papp in data set [1] above 10 ×10⁻⁶ cm/s. Besides, the IC50 in data set [2] was in the range of 40 to 400 nM. In data set [3], this compound showed a logD of 1 to 3.

Turning to `CNC(=O)C(=O)CC[C@H](NC(=O)c1nc(C)c(C)s1)C(=O)Nc1cccn(CC(=O)NC2C3CC4CC(C3)CC2C4)c1=O` (stereo partly drawn) [II-38, (S)-2-(4,5-dimethylthiazole-2-carboxamido)-N1-(1-(2-(2-adamantylamino)-2-oxoethyl)-2-oxo-1,2-dihydropyridin-3-yl)-N6-methyl-5-oxohexanediamide], in data set [1], the apparent permeability (Papp) lay within 1 to 10 ×10⁻⁶ cm/s. Further, the IC50 in data set [2] is 400 to 2500 nM. In addition, the logD in data set [3] lay within 3 to 5.

In data set [1], `CNC(=O)C(=O)CC[C@H](NC(=O)C1Cc2ccccc2C1)C(=O)Nc1cccn(CC(=O)NC2C3CC4CC(C3)CC2C4)c1=O` (stereo partly drawn) [II-13, (S)-2-(2,3-dihydro-1H-indene-2-carboxamido)-N1-(1-(2-(2-adamantylamino)-2-oxoethyl)-2-oxo-1,2-dihydropyridin-3-yl)-N6-methyl-5-oxohexanediamide] had a Papp of 1 to 10 ×10⁻⁶ cm/s. Further, the IC50 in data set [2] was below 40 nM. Also, the logD in data set [3] lay within 1 to 3.

Take `CNC(=O)C(=O)CC[C@H](NC(=O)c1c(C)nc2sccn12)C(=O)Nc1cccn(CC(=O)NC2C3CC4CC(C3)CC2C4)c1=O` (stereo partly drawn) [II-66, (S)-N1-(1-(2-(2-adamantylamino)-2-oxoethyl)-2-oxo-1,2-dihydropyridin-3-yl)-N6-methyl-2-(6-methylimidazo[2,1-b]thiazole-5-carboxamido)-5-oxohexanediamide]: in data set [1], the Papp was below 1 ×10⁻⁶ cm/s. In addition, the IC50 in data set [2] lay within 400 to 2500 nM. Also, in data set [3], the logD lay within 1 to 3.

Regarding `CNC(=O)C(=O)CC[C@H](NC(=O)C1CCc2ccccc2C1)C(=O)Nc1cccn(CC(=O)NC2C3CC4CC2CC(C(=O)N(C)C)(C4)C3)c1=O` (stereo partly drawn) [II-174, (2S)-N1-(1-(2-(4-aminoadamantane-N,N-dimethyl-1-carboxamide)-2-oxoethyl)-2-oxo-1,2-dihydropyridin-3-yl)-N6-methyl-5-oxo-2-(1,2,3,4-tetrahydronaphthalene-2-carboxamido)hexanediamide], the Papp in data set [1] was below 1 ×10⁻⁶ cm/s. Also, the IC50 in data set [2] was 40 to 400 nM. In data set [3], the logD is below 1.

In data set [1], `CNC(=O)C(=O)CC[C@H](NC(=O)c1nc(C2(C)CC2)no1)C(=O)Nc1cccn(CC(=O)NC2C3CC4CC2CC(C(N)=O)(C4)C3)c1=O` (stereo partly drawn) [II-196, (S)-N1-(1-(2-(4-aminoadamantane-1-carboxamide)-2-oxoethyl)-2-oxo-1,2-dihydropyridin-3-yl)-N6-methyl-2-(3-(1-methylcyclopropyl)-1,2,4-oxadiazole-5-carboxamido)-5-oxohexanediamide] gave a Papp below 1 ×10⁻⁶ cm/s. Also, in data set [2], the IC50 was in the range of 400 to 2500 nM. For the same compound, the logD in data set [3] is below 1.

For `CNC(=O)C(=O)CC[C@H](NC(=O)c1oc2ccccc2c1C)C(=O)Nc1cccn(CC(=O)N[C@H]2C[C@H]3C[C@@H]([C@@H]2C)C3(C)C)c1=O` [II-101, (S)-N1-methyl-5-(3-methylbenzofuran-2-carboxamido)-2-oxo-N6-(2-oxo-1-(2-oxo-2-((1S,2S,3S,5R)-2,6,6-trimethylbicyclo[3.1.1]heptan-3-ylamino)ethyl)-1,2-dihydropyridin-3-yl)hexanediamide], the Papp in data set [1] lay in the range of 1 to 10 ×10⁻⁶ cm/s. In data set [2], the IC50 lay within 40 to 400 nM. Moreover, the logD in data set [3] was 3 to 5.

As for `CNC(=O)C(=O)CC[C@H](NC(=O)c1nc[nH]n1)C(=O)Nc1cccn(CC(=O)NC2C3CC4CC(C3)CC2C4)c1=O` (stereo partly drawn) [II-134, (S)-N1-(1-(2-(2-adamantylamino)-2-oxoethyl)-2-oxo-1,2-dihydropyridin-3-yl)-N6-methyl-5-oxo-2-(1H-1,2,4-triazole-3-carboxamido)hexanediamide], in data set [1], the Papp was below 1 ×10⁻⁶ cm/s. Besides, the IC50 in data set [2] fell in the range of 400 to 2500 nM. In data set [3], the logD was below 1.

In data set [1], `NC(=O)C(=O)CC[C@H](NC(=O)c1cc2ccccc2o1)C(=O)Nc1cccn(CC(=O)N[C@@H]2C[C@@H]3CC[C@H]2C3)c1=O` [II-148, (S)-2-(benzofuran-2-carboxamido)-N1-(1-(2-((1S,2R,4R)-bicyclo[2.2.1]heptan-2-ylamino)-2-oxoethyl)-2-oxo-1,2-dihydropyridin-3-yl)-5-oxohexanediamide] returned a Papp of 1 to 10 ×10⁻⁶ cm/s. For the same compound, the IC50 in data set [2] was below 40 nM. The same compound gave a logD in data set [3] below 1.

Regarding `CNC(=O)C(=O)CC[C@H](NC(=O)c1cc(Cl)sc1Cl)C(=O)Nc1cccn(CC(=O)N[C@@H]2C[C@H]3CC[C@@H]2C3)c1=O` [II-128, (2S)-N1-(1-(2-((1R,2R,4S)-bicyclo[2.2.1]heptan-2-ylamino)-2-oxoethyl)-2-oxo-1,2-dihydropyridin-3-yl)-2-(2,5-dichlorothiophene-3-carboxamido)-N6-methyl-5-oxohexanediamide], the Papp in data set [1] was 1 to 10 ×10⁻⁶ cm/s. In addition, the IC50 in data set [2] was in the range of 40 to 400 nM. Also, the logD in data set [3] lay in the range of 1 to 3.

The compound `CNC(=O)C(=O)CC[C@H](NC(=O)c1cnnn1C)C(=O)Nc1cccn(CC(=O)N[C@@H]2C[C@@H]3CC[C@H]2C3)c1=O` [II-157, (S)-N1-(1-(2-((1S,2R,4R)-bicyclo[2.2.1]heptan-2-ylamino)-2-oxoethyl)-2-oxo-1,2-dihydropyridin-3-yl)-N6-methyl-2-(1-methyl-1H-1,2,3-triazole-5-carboxamido)-5-oxohexanediamide] yielded a Papp in data set [1] below 1 ×10⁻⁶ cm/s. Moreover, the IC50 in data set [2] fell in the range of 40 to 400 nM. In data set [3], this compound yielded a logD below 1.

For the compound `CNC(=O)C(=O)CC[C@H](NC(=O)[C@@H]1C[C@H](Br)CN1)C(=O)Nc1cccn(CC(=O)NC2C3CC4CC(C3)CC2C4)c1=O` (stereo partly drawn) [II-56, (S)-2-((2S,4S)-4-bromopyrrolidine-2-carboxamido)-N1-(1-(2-(2-adamantylamino)-2-oxoethyl)-2-oxo-1,2-dihydropyridin-3-yl)-N6-methyl-5-oxohexanediamide], the Papp in data set [1] was below 1 ×10⁻⁶ cm/s. Moreover, the IC50 in data set [2] was in the range of 40 to 400 nM. In data set [3], the logD was in the range of 1 to 3.

In data set [1], `CNC(=O)C(=O)CC[C@H](NC(=O)c1oc2ccccc2c1C)C(=O)Nc1cccn(CC(=O)NC23CCC(C2)C3)c1=O` [II-169, (S)-N1-(1-(2-(bicyclo[2.1.1]hexan-1-ylamino)-2-oxoethyl)-2-oxo-1,2-dihydropyridin-3-yl)-N6-methyl-2-(3-methylbenzofuran-2-carboxamido)-5-oxohexanediamide] came in with a Papp of 1 to 10 ×10⁻⁶ cm/s. For the same compound, the IC50 in data set [2] was below 40 nM. The compound also yielded a logD in data set [3] below 1.

Regarding `CNC(=O)C(=O)CC[C@H](NC(=O)c1oc2ccccc2c1C)C(=O)Nc1cccn(CC(=O)NC2C3CC4CC2CC(Cl)(C4)C3)c1=O` (stereo partly drawn) [II-70, (S)-N1-(1-(2-(5-chloroadamantane-2-amino)-2-oxoethyl)-2-oxo-1,2-dihydropyridin-3-yl)-N6-methyl-2-(3-methylbenzofuran-2-carboxamido)-5-oxohexanediamide], in data set [1], the Papp was in the range of 1 to 10 ×10⁻⁶ cm/s. In data set [2], the IC50 is below 40 nM. Moreover, the logD in data set [3] lay in the range of 1 to 3.

The compound `CNC(=O)C(=O)CC[C@H](NC(=O)c1csc(Br)c1)C(=O)Nc1cccn(CC(=O)NC2C3CC4CC(C3)CC2C4)c1=O` (stereo partly drawn) [II-30, (S)-2-(5-bromothiophene-3-carboxamido)-N1-(1-(2-(2-adamantylamino)-2-oxoethyl)-2-oxo-1,2-dihydropyridin-3-yl)-N6-methyl-5-oxohexanediamide] registered a Papp in data set [1] of 1 to 10 ×10⁻⁶ cm/s. Besides, in data set [2], the IC50 is below 40 nM. This compound came in with a logD in data set [3] of 3 to 5.

Consider `CNC(=O)C(=O)CC[C@H](NC(=O)c1[nH]c2ccccc2c1C)C(=O)Nc1cccn(CC(=O)NC2C3CC4CC(C3)CC2C4)c1=O` (stereo partly drawn) [II-11, (S)-N1-(1-(2-(2-adamantylamino)-2-oxoethyl)-2-oxo-1,2-dihydropyridin-3-yl)-N6-methyl-2-(3-methyl-1H-indole-2-carboxamido)-5-oxohexanediamide], for which the Papp in data set [1] lay in the range of 1 to 10 ×10⁻⁶ cm/s. For the same compound, in data set [2], the IC50 was below 40 nM. In data set [3], this compound showed a logD of 1 to 3.

The Papp is a coefficient for how fast a substance crosses the barrier. A high value points to ready permeation. Broadly, the IC50 is the midpoint of a concentration-inhibition curve. A word on the logD: it is lipophilicity at a set pH, counting ionised and neutral species.

The values above are taken from patent US20240383856A1 (Zedira GmbH, priority 2021, published 2024).
